From patent US11312727B1, “Macrocyclic flu endonuclease inhibitors” (Janssen BioPharma, Inc., priority 2018, dated 2022) come the findings set out here.

SMILES strings stand for the structures.

For the test, the system named is Influenza strain A549 A/WSN/33 (H1N1). Description: microbe, parasite or virus in culture. The test is classed as cell-based. As to conditions: Influenza A virus, A549, 20 h, A549 cells, influenza A/WSN/33 (H1N1), 20 hours incubation; read-out: A549_A(H1N1) EC50.
What is called EC50 is the midpoint of the concentration-response curve. On to `CC[C@H]1/C=C/COc2c(ccc(F)c2Cl)[C@@H](c2ccccc2)N2CN1C(=O)c1c(O)c(=O)ccn12` (single isomer, unassigned) [Compound 173BA, (9*S,18*R,*E)-4-chloro-9-ethyl-3-fluoro-12-hydroxy-18-phenyl-6,9-dihydro-18H-10,17-methanobenzo[b]pyrido[1,2-f][1]oxa[5,6,9]triazacyclotridecine-11,13-dione], for which the EC50 stood at 26 nM. As to `O=C1c2c(O)c(=O)ccn2N2CN1[C@@]1(/C=C/COc3cc(F)c(F)c4c3[C@H]2c2ccccc2SC4)CCOC1` (single isomer, unassigned) [Compound 176BA, (3*R, 17a′*S,*E)-24′,25′-difluoro-12′-hydroxy-2′,4,5,17a′-tetrahydro-2H,6′H-spiro[furan-3,9′-[3,4](epiprop[1]en[1]yl[3]ylidene)[10,17]methanobenzo[6,7]thiepino[4,5-c]pyrido[1,2-f][1]oxa[5,6,9]triazacyclotridecine]-11′,13′-dione], the EC50 was 1.1 nM. For the compound `COC[C@@H]1/C=C/COc2cc(F)c(F)c3c2[C@H](c2ccccc2SC3)N2CN1C(=O)c1c(O)c(=O)ccn12` (single isomer, unassigned) [Compound 177AB, (9*S,17a*R,*E)-24,25-difluoro-12-hydroxy-9-(methoxymethyl)-2,6,9,17a-tetrahydro-3,4-(epiprop[1]en[1]yl[3]ylidene)-10,17-methanobenzo[6,7]thiepino[4,5-c]pyrido[1,2-f][1]oxa[5,6,9]triazacyclotridecine-11,13-dione], the EC50 stood at 0.67 nM.

Take `O=C1c2c(O)c(=O)ccn2N2CN1C1(/C=C/COc3cc(F)cc4c3[C@@H]2c2ccccc2SC4)CCC1` (single isomer, unassigned) [Compound 180A, (17a′*R,*E)-24′-fluoro-12′-hydroxy-2′,17a′-dihydro-6′H-spiro[cyclobutane-1,9′-[3,4](epiprop[1]en[1]yl[3]ylidene)[10,17]methanobenzo[6,7]thiepino[4,5-c]pyrido[1,2-f][1]oxa[5,6,9]triazacyclotridecine]-11′,13′-dione]: the concentration for a half-maximal effect (EC50) was found to be 29 nM. Next, `Cc1ccccc1[C@H]1c2ccc(F)c(F)c2OC/C=C/C2(CCC2)N2CN1n1ccc(=O)c(O)c1C2=O` (single isomer, unassigned) [Compound 174B, (18′*S,*E)-3′,4′-difluoro-12′-hydroxy-18′-(o-tolyl)-6′H,18′H-spiro[cyclobutane-1,9′-[10,17]methanobenzo[b]pyrido[1,2-f][1]oxa[5,6,9]triazacyclotridecine]-11′,13′-dione]: 1.2 nM. Then `CC(C)[C@H]1/C=C/COc2cc(F)c(F)c3c2[C@H](c2ccccc2SC3)N2CN1C(=O)c1c(O)c(=O)ccn12` (single isomer, unassigned) [Compound 169BA, (9*S,17a*R,*E)-24,25-difluoro-12-hydroxy-9-isopropyl-2,6,9,17a-tetrahydro-3,4-(epiprop[1]en[1]yl[3]ylidene)-10,17-methanobenzo[6,7]thiepino[4,5-c]pyrido[1,2-f][1]oxa[5,6,9]triazacyclotridecine-11,13-dione], with 0.83 nM. In the case of `CC[C@H]1/C=C/COc2c(ccc(Cl)c2F)[C@@H](c2ccccc2)N2CN1C(=O)c1c(O)c(=O)ccn12` (single isomer, unassigned) [Compound 170BA, (9*S,18*R,E)-3-chloro-9-ethyl-4-fluoro-12-hydroxy-18-phenyl-6,9-dihydro-18H-10,17-methanobenzo[b]pyrido[1,2-f][1]oxa[5,6,9]triazacyclotridecine-11,13-dione], the EC50 was 24 nM. Turning to `CC[C@@H]1/C=C/COc2c(ccc(Cl)c2F)[C@@H](c2ccccc2)N2CN1C(=O)c1c(O)c(=O)ccn12` (single isomer, unassigned) [Compound 170BB, (9*R,18*R,E)-3-chloro-9-ethyl-4-fluoro-12-hydroxy-18-phenyl-6,9-dihydro-18H-10,17-methanobenzo[b]pyrido[1,2-f][1]oxa[5,6,9]triazacyclotridecine-11,13-dione], the EC50 stood at 2 nM. Then `O=C1c2c(O)c(=O)ccn2N2CN1C/C=C\COc1c(ccc(F)c1F)[C@H]2c1ccccc1CF` (single isomer, unassigned) [Compound 175A, (18*R,Z)-3,4-difluoro-18-(2-(fluoromethyl)phenyl)-12-hydroxy-6,9-dihydro-18H-10,17-methanobenzo[b]pyrido[1,2-f][1]oxa[5,6,9]triazacyclotridecine-11,13-dione], with 2.3 nM.

As to `CC[C@H]1/C=C/COc2c(ccc(F)c2F)[C@@H](c2ccccc2C)N2CN1C(=O)c1c(O)c(=O)ccn12` (single isomer, unassigned) [Compound 167AA, (9*S,18*R,E)-9-ethyl-3,4-difluoro-12-hydroxy-18-(o-tolyl)-6,9-dihydro-18H-10,17-methanobenzo[b]pyrido[1,2-f][1]oxa[5,6,9]triazacyclotridecine-11,13-dione], the EC50 came out at 0.91 nM. Then `CC[C@@H]1/C=C/COc2c(ccc(F)c2F)[C@@H](c2ccccc2C)N2CN1C(=O)c1c(O)c(=O)ccn12` (single isomer, unassigned) [Compound 167AB, (9*R,18*R,E)-9-ethyl-3,4-difluoro-12-hydroxy-18-(o-tolyl)-6,9-dihydro-18H-10,17-methanobenzo[b]pyrido[1,2-f][1]oxa[5,6,9]triazacyclotridecine-11,13-dione], with 0.96 nM. Next, `COC[C@H]1/C=C/COc2cc(F)c(F)c3c2[C@H](c2ccccc2SC3)N2CN1C(=O)c1c(O)c(=O)ccn12` (single isomer, unassigned) [Compound 177AA, (9*R,17a*R,*E)-24,25-difluoro-12-hydroxy-9-(methoxymethyl)-2,6,9,17a-tetrahydro-3,4-(epiprop[1]en[1]yl[3]ylidene)-10,17-methanobenzo[6,7]thiepino[4,5-c]pyrido[1,2-f][1]oxa[5,6,9]triazacyclotridecine-11,13-dione]: 15 nM. On to `O=C1c2c(O)c(=O)ccn2N2CN1C1(/C=C/COc3cc(F)cc4c3[C@H]2c2ccccc2SC4)CCC1` (single isomer, unassigned) [Compound 180B, (17a′*S,*E)-24′-fluoro-12′-hydroxy-2′,17a′-dihydro-6′H-spiro[cyclobutane-1,9′-[3,4](epiprop[1]en[1]yl[3]ylidene)[10,17]methanobenzo[6,7]thiepino[4,5-c]pyrido[1,2-f][1]oxa[5,6,9]triazacyclotridecine]-11′,13′-dione], for which the EC50 was found to be 0.36 nM.

For `O=C1c2c(O)c(=O)ccn2N2CN1C1(/C=C/COc3cc(F)c(F)c4c3[C@H]2c2ncccc2SC4)CCC1` (single isomer, unassigned) [Compound 168B, (21a′*S,*E)-24′,25′-difluoro-16′-hydroxy-6′,21a′-dihydro-10′H-spiro[cyclobutane-1,13′-[7,8](epiprop[1]en[1]yl[3]ylidene)[14,21]methanopyrido[1,2-f]pyrido[2′,3′:6,7]thiepino[4,5-c][1]oxa[5,6,9]triazacyclotridecine]-15′,17′-dione], the EC50 worked out at 0.6 nM.

As for `CC[C@@H]1/C=C/COc2c(ccc(F)c2F)[C@H](c2ccccc2C)N2CN1C(=O)c1c(O)c(=O)ccn12` (single isomer, unassigned) [Compound 167BB, (9*R,18*S,E)-9-ethyl-3,4-difluoro-12-hydroxy-18-(o-tolyl)-6,9-dihydro-18H-10,17-methanobenzo[b]pyrido[1,2-f][1]oxa[5,6,9]triazacyclotridecine-11,13-dione], the EC50 is over 50 nM.
